Experiment in all cases: MIC, broth micro-dilution technique (CLSI)
The subject of assay [1] is Methicillin Resistant Staphylococcus aureus strain USA 300 (NRS384). It is filed as cell-based. Conditions: for MIC: Staphylococcus aureus, 22 h, read-out: MIC (μg/mL) S. aureus. The method, then:
(§1) In vitro antimicrobial activity of each compound was determined by measuring minimal inhibitor concentrations (MICs) using the broth micro-dilution technique as approved by the Clinical and Laboratory Standards Institute (CLSI) (Methods for Dilution Antimicrobial Susceptibility Tests for Bacteria that Grow Aerobically; Approved Standard—Eighth Edition. CLSI document M07-A8. Wayne, Pa.: Clinical and Laboratory Standards; 2009). Antibacterial activity was measured against three strains of bacteria: a Methicillin Resistant Staphylococcus aureus strain USA 300 (NRS384); a MRSA COL (NRS100), another Methicillin Resistant Staphylococcus aureus strain; and a strain of Escherichia coli MC4100 harboring the IMP4213, which results in increased outer-membrane permeability (B Martin and Silhavy T. Imp/OstA is required for cell envelope biogenesis in Escherichia coli. (2002) Molecular Microbiology, 45(5), 1289-1302). Cells were inoculated onto plates of Trypyticase Soy Agar or Luria Agar respectively and grown at 35° C. for 20 hours. Inocula suspensions were prepared by scraping cells into 1 ml of testing media (cation adjusted Mueller Hinton Broth supplemented with 0.002% v/v Tween-80) and diluting to a final OD600 nm of 0.01.
(§2) Test compounds were prepared in DMSO at a concentration of 10 mg/ml. These compound stocks were diluted into testing media at a concentration of 64 μg/ml and serial 2-fold dilutions were made in the same media, in 96-well U bottom microtiter dishes, for a total of 10 compound concentrations (Table 1). In modified protocols (Table 2), compound stocks were diluted into testing media at a concentration of 4 μg/mL and serial 2-fold dilutions were made in the same media, in 96-well U bottom microtiter dishes, for a total of 10 compound concentrations. Inocula suspensions were added to the 2-fold serial dilutions of test compounds to a final density of OD OD600 nm of 0.0005 and incubated at 35° C. for 22 hours. […] The results from the protocol starting from a concentration of 64 µg/mL are listed in Table 1 and the results from the modified protocol are shown in Table 2.

The next assay deals with MRSA COL (NRS100). Format: cell-based, Staphylococcus aureus. Conditions: Staphylococcus aureus, 22 h, read-out: MIC (μg/mL) (COL). On the procedure: as §1, §2
In assay [2] the test system is Escherichia coli MC4100 harboring the IMP4213. Format: cell-based. Particulars: 35° C., 22 hours; for MIC: Escherichia coli, 22 h, read-out: MIC (μg/mL) E. coli, Table 1 protocol: serial 2-fold dilutions starting from 64 μg/ml; for MIC (μg/mL) E. coli: Table 1 protocol: serial 2-fold dilutions starting from 64 μg/ml. The method, then: as §1, §2
Where [3] appears, read: Table 1 protocol: serial 2-fold dilutions starting from 64 μg/ml, 35° C., 22 hours.

≈ marks a conversion by molar mass, not a printed value. Where two headings read alike, the source gives them in different places.

As for `C[C@H](NCC(=O)[C@H](C)NC(=O)[C@@H]1Cc2ccc(O)c(c2)-c2cc(ccc2O)[C@H](N(C)C(=O)[C@H](CCCCN)NC(=O)c2ccc(-c3ccc(Cl)cc3)cc2)C(=O)N[C@@H](C)C(=O)N1)C(N)=O` [Compound 125], the MIC in assay [1] turned out to be 32 µg/mL (≈ 35.1 µM); in the assay with MRSA COL (NRS100), 8 µg/mL (≈ 8.78 µM).

Regarding `COC(=O)[C@@H]1CCCN1CC(=O)[C@H](C)NC(=O)[C@@H]1Cc2ccc(O)c(c2)-c2cc(ccc2O)[C@H](N(C)C(=O)[C@H](CCCCN)NC(=O)c2ccc(-c3ccc(Cl)cc3)cc2)C(=O)N[C@@H](C)C(=O)N1` [Compound 126], the MIC is above 64 µg/mL in assay [2] and 32 µg/mL (≈ 33.6 µM) in assay [1].

`CC[C@H](NC(=O)[C@@H]1Cc2ccc(O)c(c2)-c2cc(ccc2O)[C@H](N(C)C(=O)[C@H](CCCCN)NC(=O)c2ccc(-c3ccc(Cl)cc3)cc2)C(=O)N[C@@H](C)C(=O)N1)C(C)=O` [Compound 127]: the MIC in assay [2] is 64 µg/mL (≈ 76.2 µM); in assay [1], above 64 µg/mL.

Consider `C[C@H](NC(=O)[C@@H]1Cc2ccc(O)c(c2)-c2cc(ccc2O)[C@H](N(C)C(=O)[C@H](CCCCN)NC(=O)c2ccc(-c3ccc(Cl)cc3)cc2)C(=O)N[C@@H](C)C(=O)N1)C(=O)/C=C/c1c[nH]cn1` [Compound 131], for which the MIC in assay [2] and in assay [1] (setting [3]) was above 64 µg/mL each time.

With `C[C@H](NC(=O)[C@@H]1Cc2ccc(O)c(c2)-c2cc(ccc2O)[C@H](N(C)C(=O)[C@H](CCCCN)NC(=O)c2ccc(-c3ccc(Cl)cc3)cc2)C(=O)N[C@@H](C)C(=O)N1)C(=O)CS(N)(=O)=O` [Compound 143], the MIC in assay [2] was determined as 51 µg/mL (≈ 56.4 µM); in assay [1] it was 6.3 µg/mL (≈ 6.97 µM).

`CCOC(=O)CCC(=O)[C@H](C)NC(=O)[C@@H]1Cc2ccc(O)c(c2)-c2cc(ccc2O)[C@H](N(C)C(=O)[C@H](CCCCN)NC(=O)c2ccc(-c3ccc(Cl)cc3)cc2)C(=O)N[C@@H](C)C(=O)N1` [Compound 146]: the MIC in assay [1] was found to be 16 µg/mL (≈ 17.6 µM); in the assay on MRSA COL (NRS100) it was 8 µg/mL (≈ 8.78 µM).

In the case of `C[C@H](NC(=O)[C@@H]1Cc2ccc(O)c(c2)-c2cc(ccc2O)[C@H](N(C)C(=O)[C@H](CCCCN)NC(=O)c2ccc(-c3ccc(Cl)cc3)cc2)C(=O)N[C@@H](C)C(=O)N1)C(=O)CCC(N)=O` [Compound 148], the MIC in assay [1] is 64 µg/mL (≈ 72.5 µM); in the assay with MRSA COL (NRS100) it was 32 µg/mL (≈ 36.3 µM).

`C[C@@H]1NC(=O)[C@@H](N(C)C(=O)[C@H](CCCCN)NC(=O)c2ccc(-c3ccc(Cl)cc3)cc2)c2ccc(O)c(c2)-c2cc(ccc2O)C[C@@H](C(=O)NCC(=O)CC2CCNC2=O)NC1=O` (stereo partly shown) [Compound 150]: the “MIC (μg/mL) E. coli” value in assay [2] is 8 µg/mL (≈ 8.94 µM). In addition, the MIC in assay [1] (setting [3]) was above 64 µg/mL.

For `C[C@@H]1NC(=O)[C@@H](N(C)C(=O)[C@H](CCCCN)NC(=O)c2ccc(-c3ccc(Cl)cc3)cc2)c2ccc(O)c(c2)-c2cc(ccc2O)C[C@@H](C(=O)NCC(=O)CC2CCNC2=O)NC1=O` (stereo partly shown) [Compound 151], the “MIC (μg/mL) E. coli” value in assay [2] was found to be 32 µg/mL (≈ 35.8 µM). Further, in assay [1] (setting [3]), the “MIC (μg/mL) S. aureus” value was above 64 µg/mL.

In the case of `CC(O)[C@@H]1Cc2ccc(O)c(c2)-c2cc(ccc2O)[C@H](N(C)C(=O)[C@H](CCCCN)NC(=O)c2ccc(-c3ccc(Cl)cc3)cc2)C(=O)N[C@@H](C)C(=O)N1` (stereo partly shown) [Compound 154], the MIC in assay [2] and in assay [1] was 64 µg/mL (≈ 84.6 µM) in each case.

In the case of `C[C@@H]1NC(=O)[C@@H](N(C)C(=O)[C@H](CCCCN)NC(=O)c2ccc(-c3ccc(Cl)cc3)cc2)c2ccc(O)c(c2)-c2cc(ccc2O)C[C@@H](C(=O)N[C@@H](C)C(=O)N2CCCC2)NC1=O` [Compound 156], the MIC is 51 µg/mL (≈ 57.9 µM) in assay [2] and above 64 µg/mL in assay [1].

As to `C[C@@H]1NC(=O)[C@@H](N(C)C(=O)[C@H](CCCCN)NC(=O)c2ccc(-c3ccc(Cl)cc3)cc2)c2ccc(O)c(c2)-c2cc(ccc2O)C[C@@H](C(=O)N[C@@H](C)C(=O)N2CCC[C@H]2CO)NC1=O` [Compound 157], the MIC was 45 µg/mL (≈ 49.4 µM) in assay [2] and above 64 µg/mL in assay [1].

On to `C[C@@H]1NC(=O)[C@@H](N(C)C(=O)[C@H](CCCCN)NC(=O)c2ccc(-c3ccc(Cl)cc3)cc2)c2cc(Br)c(O)c(c2)-c2cc(cc(Br)c2O)C[C@@H](C(=O)O)NC1=O` [Compound 164], for which the MIC in assay [2] is 8 µg/mL (≈ 8.75 µM); in assay [1], 32 µg/mL (≈ 35 µM).

`C[C@@H]1NC(=O)[C@@H](N(C)C(=O)[C@H](CCCCN)NC(=O)c2ccc(-c3ccc(Cl)cc3)cc2)c2ccc(O)c(c2)-c2cc(cc(Br)c2O)C[C@@H](C(=O)O)NC1=O` [Compound 165]: the values for the MIC in assay [2] and in assay [1] were 11 µg/mL (≈ 13.2 µM) and 45 µg/mL (≈ 53.9 µM), respectively.

`C[C@@H]1NC(=O)[C@@H](N(C)C(=O)[C@H](CCCCN)NC(=O)c2ccc(-c3ccc(Cl)cc3)cc2)c2ccc(O)c(c2)-c2cc(ccc2O)C[C@@H](C(=O)N[C@@H](C)C(=O)N2CC[C@H](O)[C@H]2C(N)=O)NC1=O` [Compound 168]: the results for the MIC in assay [2] and in assay [1] (setting [3]) were 32 µg/mL (≈ 34.1 µM) and 5.7 µg/mL (≈ 6.07 µM), respectively.

On to `C[C@@H]1NC(=O)[C@@H](N(C)C(=O)[C@H](CCCCN)NC(=O)c2ccc(-c3ccc(Cl)cc3)cc2)c2ccc(O)c(c2)-c2cc(ccc2O)C[C@@H](C(=O)N[C@@H](C)C(=O)N2C[C@H](O)C[C@H]2C(N)=O)NC1=O` [Compound 169], for which the results for the MIC in assay [2] and in assay [1] (setting [3]) were 64 µg/mL (≈ 68.1 µM) and 45 µg/mL (≈ 47.9 µM), respectively.

For `C[C@@H]1NC(=O)[C@@H](N(C)C(=O)[C@H](CCCCN)NC(=O)c2ccc(-c3ccc(Cl)cc3)cc2)c2ccc(O)c(c2)-c2cc(ccc2O)C[C@@H](C(=O)N[C@@H](C)C(=O)N2C[C@H]3C[C@H]3[C@H]2C(N)=O)NC1=O` [Compound 170], the results for the MIC in assay [2] and in assay [1] (setting [3]) were 64 µg/mL (≈ 68.4 µM) and 45 µg/mL (≈ 48.1 µM), respectively.

For `C[C@@H]1NC(=O)[C@@H](N(C)C(=O)[C@H](CCCCN)NC(=O)c2ccc(-c3ccc(Cl)cc3)cc2)c2ccc(O)c(c2)-c2cc(ccc2O)C[C@@H](C(=O)N[C@@H](C)C(=O)N2CC[C@H]2C(N)=O)NC1=O` [Compound 171], the MIC worked out at 64 µg/mL (≈ 70.4 µM) in assay [2] and 20 µg/mL (≈ 22 µM) in assay [1] (setting [3]).

In the case of `C[C@@H]1NC(=O)[C@@H](N(C)C(=O)[C@H](CCCCN)NC(=O)c2ccc(-c3ccc(Cl)cc3)cc2)c2ccc(O)c(c2)-c2cc(ccc2O)C[C@@H](C(=O)N[C@@H](C)C(=O)N2C[C@@H](F)C[C@H]2C(N)=O)NC1=O` [Compound 172], the MIC in assay [2] turned out to be 64 µg/mL (≈ 68 µM); in assay [1] (setting [3]), 16 µg/mL (≈ 17 µM).

In the case of `C[C@@H]1NC(=O)[C@@H](N(C)C(=O)[C@H](CCCCN)NC(=O)c2ccc(-c3ccc(Cl)cc3)cc2)c2ccc(O)c(c2)-c2cc(ccc2O)C[C@@H](C(=O)N[C@@H](C)C(=O)N2CCCC[C@H]2C(N)=O)NC1=O` [Compound 173], the figures for the MIC in assay [2] and in assay [1] (setting [3]) were 32 µg/mL (≈ 34.1 µM) and 64 µg/mL (≈ 68.3 µM), respectively.

For the compound `C[C@@H]1NC(=O)[C@@H](N(C)C(=O)[C@H](CCCCN)NC(=O)c2ccc(-c3ccc(Cl)cc3)cc2)c2ccc(O)c(c2)-c2cc(ccc2O)C[C@@H](C(=O)N[C@@H](C)C(=O)N2CC(F)(F)C[C@H]2C(N)=O)NC1=O` [Compound 174], the values for the MIC in assay [2] and in assay [1] (setting [3]) were 64 µg/mL (≈ 66.7 µM) and 9.5 µg/mL (≈ 9.9 µM), respectively.

On to `C[C@@H]1NC(=O)[C@@H](N(C)C(=O)[C@H](CCCCN)NC(=O)c2ccc(-c3ccc(Cl)cc3)cc2)c2ccc(O)c(c2)-c2cc(ccc2O)C[C@@H](C(=O)N[C@@H](C)C(=O)N2CCC[C@H]2C(=O)NCC(N)=O)NC1=O` [Compound 178], for which the MIC in assay [1] (setting [3]) came to 32 µg/mL (≈ 32.6 µM); with MRSA COL (NRS100) (setting [3]) it was 16 µg/mL (≈ 16.3 µM).

Turning to `C[C@@H]1NC(=O)[C@@H](N(C)C(=O)[C@H](CCCCN)NC(=O)c2ccc(-c3ccc(Cl)cc3)cc2)c2ccc(O)c(c2)-c2cc(ccc2O)C[C@@H](C(=O)NCC(=O)N2CC[C@H](O)[C@H]2C(N)=O)NC1=O` [Compound 180], the MIC in assay [2] and in assay [1] (setting [3]) was 64 µg/mL (≈ 69.2 µM) throughout.

For `CC[C@H](NC(=O)[C@@H]1Cc2ccc(O)c(c2)-c2cc(ccc2O)[C@H](N(C)C(=O)[C@H](CCCCN)NC(=O)c2ccc(-c3ccc(Cl)cc3)cc2)C(=O)N[C@@H](C)C(=O)N1)C(=O)N1CCC[C@H]1C(N)=O` [Compound 181], the results for the MIC in assay [2] and in assay [1] (setting [3]) were 64 µg/mL (≈ 68.3 µM) and 23 µg/mL (≈ 24.5 µM), respectively.

As for `CONC(=O)[C@@H]1CCCN1C(=O)[C@H](C)NC(=O)[C@@H]1Cc2ccc(O)c(c2)-c2cc(ccc2O)[C@H](N(C)C(=O)[C@H](CCCCN)NC(=O)c2ccc(-c3ccc(Cl)cc3)cc2)C(=O)N[C@@H](C)C(=O)N1` [Compound 185], the values for the MIC in assay [2] and in assay [1] were 64 µg/mL (≈ 67.1 µM) and 45 µg/mL (≈ 47.2 µM), respectively.

With `CC(=O)[C@H](C)NC(=O)[C@@H]1Cc2ccc(O)c(c2)-c2cc(ccc2OCCN2CCOCC2)[C@H](N(C)C(=O)[C@H](CCCCN)NC(=O)c2ccc(-c3ccc(Cl)cc3)cc2)C(=O)N[C@@H](C)C(=O)N1` [Compound 203], the values for the MIC (in assay [1] (setting [3]); in the assay on MRSA COL (NRS100) (setting [3])) were 23 µg/mL (≈ 24.5 µM) and 8 µg/mL (≈ 8.52 µM), respectively.

(Values after US10392422B2, “Macrocyclic broad spectrum antibiotics” (priority 2014, dated 2019).)
